In patent US4569910A, “Methods and reagents for pyranosone production” (Cetus Corporation, priority 1984, dated 1986):

Experiments:
[1] = system: P. obtusus P2O; test: Relative activities of purified P. obtusus P2O on pyranose substrates; type: biochemical; conditions: about 1% (w/v) substrate concentration; D-glucose = 100
Protocol: The P2O enzyme preparation from Example II was purified further using DEAE chromatography in 30 mM TRIS-HCl, pH 8.5, containing 2 mM EDTA and 10 ug/ml PMSF. The sample was eluted from a 5×16 cm column using a gradient of 0-300 mM NaCl. P2O activity was monitored using the orthodianisidine colorometric assay for the peroxide co-product, essentially as described by Ruelius et al., Biochim et Biophys. Acta 167, 493-500 (1968). P2O activity eluted at about 50 mM NaCl. Fractions containing the peak activity were pooled and concentrated to 0.5 ml by ultrafiltration using Amicon filters obtained from Amicon Corp. (Danvers, MA). Biogel P300 was obtained from Biorad Laboratories (Richmond, CA). The sample was further purified by molecular sieve chromatography using a 1.5×95 cm Biogel P300 column in 100 mM sodium phosphate, pH 7 buffer. The P2O activity eluted at a sharp peak corresponding to an apparent native molecular weight of about 290,000 daltons.
The enzyme appears to contain one covalently bound flavin molecule per subunit (detectable as UV-fluorescence in the 68,000 dalton SDS-PAGE band), and has absorption maxima at 276, 357 and 456 nm. The enzyme has a sedimentation coefficient of about 11.4, as determined by sucrose gradient ultracentrifugation. The relative activities of the enzyme, on D-glucose, L-sorbose, D-xylose, and D-gluconolactone are 100: 80: 48: 12, respectively, at about 1% (w/v) substrate concentration. As noted above with respect to FIG. 2, the enzyme has a broad pH optimum of between about 4.5 and 5.5.

[2] = biological target: T1, C. versicolor P2O (Trametes versicolor, UniProt P79076); test: Relative activities of purified C. versicolor P2O on pyranose substrates; type: biochemical; conditions: 1% (w/v) substrate concentration; D-glucose = 100
T1 construct: endogenous in cells; host or cells: Coriolus versicolor, own culture (NRRL 15152 / CMCC 0748, selected high producer; native enzyme, purified)
Protocol: The enzyme was applied to a 2.6×40 cm DEAE column, washed, and eluted using a 0-300 mM NaCl gradient. The P2O elutes at about 220 mM. Portions of each fraction were assayed for P2O activity, by monitoring peroxide generation conventionally. Protein concentration was also determined by a conventional method. The fractions containing P2O activity were pooled and concentrated by ultrafiltration with an Amicon PM10 filter obtained from Amicon Corp. Peak fractions were dialyzed into 30 mM sodium acetate (pH 5.5), adjusted to 1.5M NaCl and loaded onto a phenylsepharose column. The P2O was eluted with a 0-1.5M NaCl gradient in 50 mM sodium acetate, pH 5.5. The enzyme eluted at about 1.1M NaCl. Fractions containing the peak activity were pooled and concentrated to 0.5 ml by Amicon PM30 ultrafiltration and sized according to native molecular weight using a 1.5×95 cm Biogel P300 column. Elution was at 0.1 ml/minute with 100 mM sodium phosphate, pH 7.0. Using known molecular weight markers in the column, the enzyme's apparent native molecular weight was calculated to be about 130,000 daltons. A single band having a molecular weight of about 65,000 was observed when the enzyme was analyzed by SDS-PAGE. The enzyme thus appears to be a homodimer. The enzyme was judged to be about 95% pure, based on the staining intensity of protein bands in SDS-PAGE.
The relative activities of the enzyme on the substrates D-glucose, L-sorbose, D-xylose and delta-D-gluconolactone are 100: 74: 41: 6, respectively, at 1% (w/v) substrate concentration. The enzyme has a pH optimum of about 5.0.

[3] = system: L. betulinus P2O; test: Relative activities of purified L. betulinus P2O on pyranose substrates; type: biochemical; conditions: 20 mM substrate concentration; D-glucose = 100
Protocol: The resulting clear yellow supernatant was further purified using DEAE chromatography in 30 mM TRIS-HCl, pH 8.5, and eluted from the 5×16 cm column using a 0-300 mM NaCl gradient. The protein eluted at about 75 mM NaCl. Fractions containing the peak of P2O activity were pooled and concentrated to 0.5 ml by Amicon PM30 ultrafiltration, and then fractionated, according to native molecular weight, using a 1.5×95 cm Biogel P300 column. The column was run at a flow rate of 0.1 ml per minute, using 100 mM sodium phosphate, pH 7.0. The protein eluted in a fraction corresponding to an apparent native molecular weight of about 300,000 daltons. […] Based on the molecular weight data, the protein appears to be a homotetramer.
The enzyme contains a covalently attached flavin on each subunit, and has absorption maxima at 275, 360, and 450 nm. The relative activities of the purified enzyme on the pyranose substrates D-glucose, L-sorbose, D-xylose and delta-D-gluconolactone are 100: 43: 43: 26, respectively, at 20 mM substrate concentration. The enzyme has a broad pH optimum between about 5 and 6.

[4] = Nonenzymatic breakdown of purified glucosone (UV scans 200-350 nm; H2O2 effect); type: physicochemical; conditions: for Change of 310 nm peak (nonenzymatic breakdown): 0.5% glucosone solution, scans at one minute intervals
Protocol: The conversion of a pyranose to the corresponding pyranosone by P2O in the presence of oxygen is accompanied by the stoichiometric production of H2 O2. The H2 O2 produced in the reaction may promote oxidative degradation of the product. Studies performed in support of the present application indicate that nonenzymatic breakdown of glucosone to acidic products may be accelerated at H2 O2 concentrations above about 0.2 mM. More importantly, elevated H2 O2 concentrations produce relatively rapid inactivation of the P2O enzyme. The susceptibility of P2O to inactivation by elevated concentrations of H2 O2 in a continuous-flow reactor is described below in Example XIII. Briefly, four continuous-flow reactors containing different P2O/catalase activity ratios were run in the presence of pure glucose. The half-life of the P2O enzyme in each reactor was determined from the observed change in the amount of glucosone eluting from the reactor over a several-day reaction period. The measured half-lives of P2O expressed in arbitrary half-life units, are given in Example XIII, Table 1. As will be seen from the table, the presence of catalase, at a P2O/catalase activity ratio of less than about 10^-3 and preferably less than about 2×10^-4 (i.e., at an H2 O2 concentration of less than about 0.2mM) extends the measured P2O half-life 30-60 fold with respect to that of P2O reacted with glucose in the absence of catalase.
Secondly, studies indicate that pure glucosone undergoes relatively rapid, nonenzymatic breakdown above a pH of about 7.0. […] Immediately thereafter, the solution was scanned spectrophotometrically in the UV range between 200 and 350 nm, at one minute intervals.

Compound | Relative activity of the enzyme on substrate [1] | Relative activity of the enzyme on substrate [2] | Relative activity of the enzyme on substrate [3] | H2O2 concentration above which nonenzymatic breakdown to acidic products may be accelerated [4] | Change of 310 nm peak (nonenzymatic breakdown) ([4]; pH 6.0) | Change of 310 nm peak (nonenzymatic breakdown) ([4]; pH 7.0, buffered)
O=C[C@H](O)[C@@H](O)[C@H](O)[C@H](O)CO [D-glucose] | 100 | 100 | 100 | – | – | –
O=C[C@H](O)[C@@H](O)[C@H](O)CO [D-xylose] | 48 | 41 | 43 | – | – | –
O=C(CO)[C@@H](O)[C@H](O)[C@@H](O)CO [L-sorbose] | 80 | 74 | 43 | – | – | –
O=C1O[C@H](CO)[C@@H](O)[C@H](O)[C@H]1O [delta-D-gluconolactone, D-gluconic acid delta-lactone] | 12 | 6 | 26 | – | – | –
O=CC(=O)[C@@H](O)[C@H](O)[C@H](O)CO [glucosone, D-arabino-2-hexosulose] | – | – | – | above 0.2 mM | no initial peak at 310 nm was observed nor did one form | increasing several-fold over a five minute period
